IC50 and Inhibition data for 25 molecules are collected here from ChEMBL document CHEMBL1147551, “Synthesis and inhibition of Src kinase activity by 7-ethenyl and 7-ethynyl-4-anilino-3-quinolinecarbonitriles” (Bioorg Med Chem Lett, 2004).

Structures are written as SMILES. Bounds are passed on as bounds.

The target in assay [1] is Proto-oncogene tyrosine-protein kinase Src (Homo sapiens, UniProt P12931). Description: Enzyme inhibitory activity against recombinant human Src protein tyrosine kinase.
Sequence of Proto-oncogene tyrosine-protein kinase Src (P12931 2-536 limits assumed): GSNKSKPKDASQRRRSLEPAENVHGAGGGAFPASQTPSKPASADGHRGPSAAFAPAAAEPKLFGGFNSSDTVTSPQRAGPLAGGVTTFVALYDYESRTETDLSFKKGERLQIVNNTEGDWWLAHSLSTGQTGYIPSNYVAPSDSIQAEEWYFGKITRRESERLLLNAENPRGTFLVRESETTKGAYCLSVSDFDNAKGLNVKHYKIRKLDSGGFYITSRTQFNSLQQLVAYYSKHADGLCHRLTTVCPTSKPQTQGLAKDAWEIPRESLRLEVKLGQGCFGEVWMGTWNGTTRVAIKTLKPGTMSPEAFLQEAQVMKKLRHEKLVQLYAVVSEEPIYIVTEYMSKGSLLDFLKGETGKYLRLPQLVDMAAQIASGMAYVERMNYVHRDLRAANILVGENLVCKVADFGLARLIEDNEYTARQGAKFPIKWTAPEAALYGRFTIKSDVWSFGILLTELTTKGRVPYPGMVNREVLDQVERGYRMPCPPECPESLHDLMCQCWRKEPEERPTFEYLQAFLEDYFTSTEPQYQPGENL
Assay [2] is filed under the species Rattus norvegicus. Description: Inhibitory activity against Src-dependent cell proliferation assay using rat fibroblasts.
The species named for assay [3] is Rattus norvegicus. Nature of the assay: Inhibitory activity against Src-dependent cell proliferation assay, using rat fibroblasts. The format is functional.

For `COc1cc(Nc2c(C#N)cnc3cc(/C=C/c4ccccc4)c(OC)cc23)c(Cl)cc1Cl`, the results for the IC50 (in assay [1]; in the assay filed under Rattus norvegicus [2]) were 0.065 µM and 1.5 µM, respectively.

For the molecule `COc1cc(Nc2c(C#N)cnc3cc(C#Cc4ccncc4)ccc23)c(Cl)cc1Cl`, the IC50 (as a rule, the concentration at which inhibition is half-maximal) amounted to 0.083 µM in assay [1] and 2.7 µM in the assay listed under Rattus norvegicus [2].

Regarding `COc1cc(Nc2c(C#N)cnc3cc(/C=C/c4ccc(-c5ccccc5)cc4)ccc23)c(Cl)cc1Cl`, the IC50 is 2.3 µM in assay [1] and more than 10 µM in the assay listed under Rattus norvegicus [2].

As to `COc1cc(Nc2c(C#N)cnc3cc(/C=C/c4ccncc4)c(OC)cc23)c(Cl)cc1Cl`, the IC50 in the assay listed under Rattus norvegicus [2] is 0.08 µM.

For `COc1cc(Nc2c(C#N)cnc3cc(C#Cc4ccc(-c5ccccc5)cc4)ccc23)c(Cl)cc1Cl`, the IC50 in assay [1] was 0.42 µM; in the assay listed under Rattus norvegicus [2], more than 10 µM.

`N#Cc1cnc2cc(/C=C/c3ccncc3)ccc2c1Nc1ccc(Cl)cc1Cl` registered an IC50 in the assay listed under Rattus norvegicus [2] of 1.2 µM.

Regarding `CCOc1cc(Nc2c(C#N)cnc3cc(/C=C/c4ccncc4)ccc23)c(Cl)cc1Cl`, the figures for the 50% inhibitory concentration (IC50) (in assay [1]; in the assay filed under Rattus norvegicus [2]) were 3.1 µM and more than 10 µM, respectively.

`COc1cc(Nc2c(C#N)cnc3cc(C#Cc4ccccc4)c(OC)cc23)c(Cl)cc1Cl`: the IC50 stood at 0.057 µM in assay [1] and 3 µM in the assay filed under Rattus norvegicus [2].

Take `COc1cc(Nc2c(C#N)cnc3cc(C#Cc4ccccn4)ccc23)c(Cl)cc1Cl`: the values for the IC50 (in assay [1]; in the assay filed under Rattus norvegicus [2]) were 0.53 µM and more than 10 µM, respectively.

In the case of `COc1cc(Nc2c(C#N)cnc3cc(C#Cc4cccnc4)c(OC)cc23)c(Cl)cc1Cl`, the IC50 in the assay listed under Rattus norvegicus [2] was 0.27 µM.

In the case of `COc1cc(Nc2c(C#N)cnc3cc(/C=C/c4cccnc4)ccc23)c(Cl)cc1Cl`, the IC50 in assay [1] is 0.015 µM; in the assay filed under Rattus norvegicus [2], 0.23 µM.

In the assay filed under Rattus norvegicus [2], `COc1cc(Nc2c(C#N)cnc3cc(C#Cc4cccnc4)ccc23)c(Cl)cc1Cl` had an IC50 of 0.65 µM.

In the assay listed under Rattus norvegicus [2], `COc1cc(Nc2c(C#N)cnc3cc(CCc4ccncc4)ccc23)c(Cl)cc1Cl` gave an IC50 of more than 10 µM.

On to `COc1cc(Nc2c(C#N)cnc3cc(/C=C/c4ccccn4)ccc23)c(Cl)cc1Cl`, for which the Inhibition (as a rule, how much of the control response was suppressed) in the assay filed under Rattus norvegicus [3] is 50%. For the same molecule, the IC50 in assay [1] stood at 0.019 µM.

Consider `COc1cc(Nc2c(C#N)cnc3cc(/C=C/c4cccnc4)c(OC)cc23)c(Cl)cc1Cl`, for which the IC50 in assay [1] was 0.0084 µM; in the assay listed under Rattus norvegicus [2] it was 0.14 µM.

As for `COc1cc(Nc2c(C#N)cnc3cc(/C=C/c4ccc5ccccc5c4)ccc23)c(Cl)cc1Cl`, the IC50 in assay [1] was 0.32 µM; in the assay listed under Rattus norvegicus [2] it was more than 10 µM.

Turning to `COc1cc(Nc2c(C#N)cnc3cc(/C=C/c4ccccc4)ccc23)c(Cl)cc1Cl`, the IC50 in assay [1] stood at 0.18 µM; in the assay listed under Rattus norvegicus [2], 2.7 µM.

On to `N#Cc1cnc2cc(/C=C/c3ccncc3)ccc2c1Oc1ccc(Cl)cc1Cl`, for which the IC50 in assay [1] turned out to be 0.38 µM; in the assay filed under Rattus norvegicus [2] it was 7.2 µM.

`COc1cc(Nc2c(C#N)cnc3cc(C#Cc4ccccc4)ccc23)c(Cl)cc1Cl`: the values for the IC50 (in assay [1]; in the assay listed under Rattus norvegicus [2]) were 0.32 µM and more than 10 µM, respectively.

Regarding `COc1cc(Nc2c(C#N)cnc3cc(/C=C/c4ccncc4)ccc23)c(Cl)cc1Cl`, the IC50 in the assay listed under Rattus norvegicus [2] was 0.23 µM.

Regarding `N#Cc1cnc2cc(/C=C/c3ccncc3)ccc2c1NCc1ccc(Cl)cc1Cl`, the IC50 in assay [1] was 1 µM; in the assay filed under Rattus norvegicus [2], more than 10 µM.

`N#Cc1cnc2cc(C#Cc3cccnc3)ccc2c1Nc1ccc(Cl)cc1Cl`: the IC50 was 0.2 µM in assay [1] and 3.9 µM in the assay filed under Rattus norvegicus [2].

For the molecule `O=C(O)c1cnc2cc(/C=C/c3ccncc3)ccc2c1Nc1ccc(Cl)cc1Cl`, the IC50 in assay [1] was 1.6 µM; in the assay filed under Rattus norvegicus [2] it was more than 10 µM.

Turning to `CCOC(=O)c1cnc2cc(/C=C/c3ccncc3)ccc2c1Nc1ccc(Cl)cc1Cl`, the IC50 in assay [1] was 12 µM; in the assay filed under Rattus norvegicus [2] it was more than 10 µM.

Regarding `C=Cc1ccc2c(Nc3cc(OC)c(Cl)cc3Cl)c(C#N)cnc2c1`, the IC50 in assay [1] came out at 0.097 µM; in the assay filed under Rattus norvegicus [2] it was 9.3 µM.
